Results as given in ChEMBL document CHEMBL1129973, “HIV-1 integrase pharmacophore: discovery of inhibitors through three-dimensional database searching” (J Med Chem, 1997).

How the values were obtained:
[1] = target: T1, Human immunodeficiency virus type 1 integrase (Human immunodeficiency virus 1, UniProt Q7ZJM1); test: Inhibitory concentration to inhibit HIV-1 integrase by 3' -processing method
[2] = target: T1, Human immunodeficiency virus type 1 integrase; test: Inhibitory concentration against HIV-1 integrase by strand transfer method
[3] = target: T1, Human immunodeficiency virus type 1 integrase; test: Inhibitory concentration to inhibit HIV-1 integrase by 3' -processing
[4] = target: T1, Human immunodeficiency virus type 1 integrase; test: Inhibitory concentration required to inhibit HIV-1 integrase by strand transfer method

T1 sequence (Q7ZJM1 whole entry): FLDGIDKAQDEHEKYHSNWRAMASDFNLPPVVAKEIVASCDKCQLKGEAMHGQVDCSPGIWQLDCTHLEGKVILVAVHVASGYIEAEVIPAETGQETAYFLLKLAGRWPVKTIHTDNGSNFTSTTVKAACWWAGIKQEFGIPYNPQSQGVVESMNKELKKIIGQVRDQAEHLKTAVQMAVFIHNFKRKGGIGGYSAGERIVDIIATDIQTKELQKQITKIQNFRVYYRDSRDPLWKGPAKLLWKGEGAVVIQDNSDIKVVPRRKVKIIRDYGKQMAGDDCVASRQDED

Row | Structure (SMILES) | IC50 [1] | IC50 [2] | IC50 [3] | IC50 [4]
1 | CC1=NN(c2ccccc2)C(=O)C1/N=N/c1ccc(S(=O)(=O)Nc2nnc(C)s2)cc1 (stereo not given) | 134 µM | 77 µM |  | 
2 | NNS(=O)(=O)c1ccc(OCC(=O)O)cc1 | 8.2 µM | 8.8 µM |  | 
3 | CC(=O)C1(/N=N/c2ccc(S(=O)(=O)Nc3onc(C)c3C)cc2)CCOC1=O (stereo not given) | 193 µM | 143 µM |  | 
4 | CC(=O)Nc1cc(S(=O)(=O)O)cc2cc(S(=O)(=O)O)cc(O)c12 | 0.47 µM | 0.29 µM |  | 
5 | Cc1cc(NS(=O)(=O)c2ccc(N/N=C3/C(=N)C(C)C(=O)C(C)C3=O)cc2)nc(C)n1 (stereo not given) | > 200 µM | > 200 µM |  | 
6 | Cc1nnc(NS(=O)(=O)c2ccc(N/N=C3/C(=N)C(C)C(=O)C(C)C3=O)cc2)s1 (stereo not given) | > 200 µM | > 200 µM |  | 
7 | Cc1nnc(NS(=O)(=O)c2ccc(C3SC(=S)NC3=O)cc2)s1 (stereo not given) | 24 µM | 19 µM |  | 
8 | O=C(Nc1ccc(S(=O)(=O)Nc2ccc(/N=N/c3ccccc3)cc2)cc1)C(Sc1[nH]cnc2ncnc1-2)Sc1[nH]cnc2ncnc1-2 | 140 µM | 112 µM |  | 
9 | CC(=O)C1(/N=N/c2ccc(S(=O)(=O)Nc3ccccn3)cc2)CCOC1=O (stereo not given) | > 200 µM | > 200 µM |  | 
10 | CC(=O)N(C(C)=O)c1nc2c(c(=O)n(C)c(=O)n2C)n1C | > 200 µM | > 200 µM |  | 
11 | Cc1cc(C)nc(NS(=O)(=O)c2ccc(NC(=O)c3cccn4c(=O)c5ccccc5nc34)cc2)n1 | 75.5 µM | 44.6 µM |  | 
12 | Cc1ccnc(NS(=O)(=O)c2ccc(N/N=C3/C(=N)C(C)C(=O)C(C)C3=O)cc2)n1 (stereo not given) | > 200 µM | > 200 µM |  | 
13 | CCOC(=O)C(CCCCn1cnc2ncnc(Cl)c21)(NC(C)=O)C(=O)OCC | > 200 µM | > 200 µM |  | 
14 | CC(=O)Nc1ccc(S(=O)(=O)/N=N/NCC(=O)O)cc1 | > 200 µM | > 200 µM |  | 
15 | CCOC(=O)C(/C=N/c1ccc(S(N)(=O)=O)cc1)C(=O)OCC | > 200 µM | > 200 µM |  | 
16 | CC1=NN(c2ccccc2)C(=O)C1/N=N/c1ccc(S(=O)(=O)Nc2ccccn2)cc1 (stereo not given) | > 200 µM | > 200 µM |  | 
17 | COc1cc(NS(=O)(=O)c2ccc(C(C)=O)cc2)nc(OC)n1 | > 200 µM | > 200 µM |  | 
18 | CC1=NN(c2ccccc2)C(=O)C1/N=N/c1ccc(S(N)(=O)=O)cc1 (stereo not given) | > 200 µM | > 200 µM |  | 
19 | Cc1ccnc(NS(=O)(=O)c2ccc(NC(=O)Nc3ccc(Cl)c(C(F)(F)F)c3)cc2)n1 | 122 µM | 80 µM |  | 
20 | CCOC(=O)COc1ccc(S(=O)(=O)c2ccc(OCC(=O)OCC)cc2)cc1 | > 200 µM | > 200 µM |  | 

Row | Structure (SMILES) | IC50 [1] | IC50 [2] | IC50 [3] | IC50 [4]
21 | CS(=O)(=O)c1nc2ccc(N3C(=O)c4ccccc4C3=O)cc2s1 | > 200 µM | > 200 µM |  | 
22 | Cc1cc(C)nc(NS(=O)(=O)c2ccc(CN3C(=O)c4ccccc4C3=O)cc2)n1 | > 200 µM | > 200 µM |  | 
23 | CCOC(=O)N(CCCCCCNC(c1ccccc1)S(=O)(=O)O)c1ccccc1 (stereo not given) | > 200 µM | > 200 µM |  | 
24 | Cc1cc(C)nc(NS(=O)(=O)c2ccc(NC(=O)c3cccc4c(N)c5ccccc5nc34)cc2)n1 | 48.3 µM | 13.7 µM |  | 
25 | CCC(=O)CCC1=Nc2nnc(CCCCc3nnc4n3C(=O)C(CCC(=O)CC)=N4)n2C1=O | > 200 µM | > 200 µM |  | 
26 | Cc1csc(NS(=O)(=O)c2ccc(N/N=C3/C(=N)C(C)C(=O)C(C)C3=O)cc2)c1C (stereo not given) | > 200 µM | > 200 µM |  | 
27 | NS(=O)(=O)c1ccc(NC(=O)/C=C\C(=O)O)cc1 | > 200 µM | > 200 µM |  | 
28 | O=C(O)c1ccccc1/C=N/NC1=CS(=O)(=O)C=C1 | > 200 µM | > 200 µM |  | 
29 | CC1=NN(c2ccccc2)C(=O)C1/N=N/c1ccc(S(=O)(=O)Nc2cc(C)nc(C)n2)cc1 (stereo not given) | > 200 µM | > 200 µM |  | 
30 | CC1=NN(c2ccccc2)C(=O)C1/N=N/c1ccc(S(=O)(=O)Nc2ncccn2)cc1 (stereo not given) | > 200 µM | > 200 µM |  | 
31 | CC1=NN(c2ccccc2)C(=O)C1/N=N/c1ccc(S(=O)(=O)Nc2nccc(C)n2)cc1 (stereo not given) | 49 µM | 23.6 µM |  | 
32 | Nc1nc(N)c(/N=N/c2ccc(S(=O)(=O)NC(=O)c3ccccc3)cc2)c(O)n1 | 120 µM | 96 µM |  | 
33 | CC(=O)C1(/N=N/c2ccc(S(=O)(=O)Nc3nnc(C)s3)cc2)CCOC1=O (stereo not given) | 244 µM | 178 µM |  | 
34 | CC(=O)Nc1cccc2cc(S(=O)(=O)O)ccc12 | 27.9 µM | 14.3 µM |  | 
35 | CC(=O)Nc1cc2cc(NS(=O)(=O)c3cc(C(F)(F)F)cc(C(F)(F)F)c3)ccc2oc1=O | > 200 µM | > 200 µM |  | 
36 | CC1C(=N)/C(=N/Nc2ccc(S(=O)(=O)Nc3ccccn3)cc2)C(=O)C(C)C1=O (stereo not given) | > 200 µM | > 200 µM |  | 
37 | CC1C(=N)/C(=N/Nc2ccc(S(=O)(=O)Nc3nccs3)cc2)C(=O)C(C)C1=O (stereo not given) | > 200 µM | > 200 µM |  | 
38 | NS(=O)(=O)c1ccc(NC=C2C(=O)N(c3ccccc3)N(c3ccccc3)C2=O)cc1 | > 200 µM | > 200 µM |  | 
39 | NS(=O)(=O)c1ccc(NC(=O)/C=C/C(=O)O)cc1 | > 200 µM | > 200 µM |  | 
40 | CC1C(=N)/C(=N/Nc2ccc(S(=O)(=O)Nc3ncccn3)cc2)C(=O)C(C)C1=O (stereo not given) | > 200 µM | > 200 µM |  | 

Row | Structure (SMILES) | IC50 [1] | IC50 [2] | IC50 [3] | IC50 [4]
41 | O=C(Nc1ccc(S(=O)(=O)Nc2ccc(/N=N/c3ccc(S(=O)(=O)Nc4nccs4)cc3)cc2)cc1)C(N1CC1)(N1CC1)N1CC1 | > 200 µM | > 200 µM |  | 
42 | O=C(CNC(=O)c1cnc2ccccc2n1)NCCCNC(=O)CNC(=O)c1cnc2ccccc2n1 | > 200 µM | > 200 µM |  | 
43 | Cc1ccccc1CN1C2=NCCN2C(=O)C2=C1CCN(S(=O)(=O)c1ccc(Cl)c(S(N)(=O)=O)c1)C2 | > 200 µM | > 200 µM |  | 
44 | CC(=O)Nc1ccc(N)c2cc(S(=O)(=O)O)ccc12 | 3.4 µM | 2.7 µM |  | 
45 | C=C1CC(c2ccc(S(=O)(=O)N3CCOCC3)cc2)OC1=O (stereo not given) | > 200 µM | > 200 µM |  | 
46 | COC(=O)c1noc2c1CSC1=C2CS(=O)(=O)c2ccccc21 | > 200 µM | > 200 µM |  | 
47 | CC(=O)NCCSS(=O)(=O)CCCCCS(=O)(=O)SCCNC(C)=O | > 200 µM | > 200 µM |  | 
48 | CC(=O)OCC1OC(n2ccc(-n3cncn3)nc2=O)CC1N=[N+]=[N-] (stereo not given) | > 200 µM | > 200 µM |  | 
49 | NC1=NNC(=O)C1/N=N/c1ccc(S(=O)(=O)Nc2nccs2)cc1 (stereo not given) | 71 µM | 61 µM |  | 
50 | CCOC(=S)SC1OC(COC(C)=O)C(OC(C)=O)C(OC(C)=O)C1OC(C)=O (stereo not given) | > 200 µM | > 200 µM |  | 
51 | CCOC(=O)C(Cc1cn(S(=O)(=O)c2ccccc2)c2ccccc12)(NC(C)=O)C(=O)OCC | > 200 µM | > 200 µM |  | 
52 | CCC(=O)C(C)C(=O)C(=O)NCCNC(=O)C(=O)C(C)C(=O)CC (stereo not given) | > 200 µM | > 200 µM |  | 
53 | CC1=NN(c2ccccc2)C(=O)C1/N=N/c1ccc(S(=O)(=O)Nc2scc(C)c2C)cc1 (stereo not given) |  |  | 124 µM | 97 µM
54 | CC(=O)C1(/N=N/c2ccc(S(=O)(=O)Nc3nccc(C)n3)cc2)CCOC1=O (stereo not given) | 70 µM | 65 µM |  | 
55 | CS(=O)(=O)Nc1ccc2oc(=O)c3ccccc3c2c1 | > 200 µM | > 200 µM |  | 
56 | NS(=O)(=O)c1ccc(NN=C2C(=O)N(c3ccccc3)N(c3ccccc3)C2=O)cc1 | > 200 µM | > 200 µM |  | 
57 | O=C1NC(=S)SC1c1ccc(S(=O)(=O)Nc2ncccn2)cc1 (stereo not given) | 28.6 µM | 14 µM |  | 
58 | NS(=O)(=O)c1ccc(/N=N/C2Sc3nc4ccccc4n3C2=O)cc1 (stereo not given) | 209 µM | 126 µM |  | 
59 | Nc1ncnc2c1ncn2[C@@H]1O[C@H](CO[C@@H]2[C@@H](O)[C@H](OS(=O)(=O)O)[C@H](O)[C@@H](O[C@H]3O[C@@H](CO)[C@@H](O)[C@H](O)[C@@H]3N)[C@]2(O)C(=O)[C@@H](N)CO)[C@@H](O)[C@H]1O | > 200 µM | > 200 µM |  | 
60 | O=C(O)[C@H]1OC(n2cc([N+](=O)[O-])c(=O)[nH]c2=O)[C@H](O)[C@@H]1O (stereo not given in full) | > 200 µM | > 200 µM |  | 
